The structures appear in SMILES notation. Where two headings read alike, the source gives them in different places.

Broadly, the IC50 is the concentration that gives 50% inhibition.

The test system of the assay is HCV proteins in Rep5.1 cells (replicon cell line). Nature of the assay: Inhibitory activity of HCV: cell-based ELISA in replicon cell line Rep5.1 (decrease of HCV proteins). Details: species or system hepatitis C virus. The following applies: Hepatitis C virus, 72 h, Rep5.1 cells, 72 hours with drug. How it is done:
In order to, screen and evaluate the anti-HCV therapeutic agents in cell level, the following experiments are carried out using a replicon cell line, Rep5.1 [Lohmann, et al., Replication of subgenomic hepatitis C virus RNAs in a hepatoma cell line. Science 285:110-113 (1999)].
Rep5.1 cells, the replicon cell line, are cultured in DMEM-10 containing 500 μg/ml of G418. The Rep5.1 cells in log phase are suspended by trypsin treatment, and 5000 cells are distributed to each well of a 96-well plate. After 4 hours when the cells are attached to the plate, the serially diluted drug is added to each well. After 48 hours, a part of the treated cells are observed by microscope, and MTT assay is carried out to evaluate the drug toxicity. The cytotoxicity is estimated in percentage based on the control containing no drug. After 72 hours, the remaining cells are fixed by methanol/acetone (50/50, v/v), and the decrease of HCV proteins is measured by using HCV antibody. The extent of decrease is estimated in percentage based on the control containing no drug, and the concentration of drug at which 50% of proteins is decreased is determined to be IC50. The compounds showing activity via this procedure are validated by Western blotting. In order to find out whether the decrease of HCV protein is related to the decrease of replicon RNA, Rep5.1 cell is treated with some selected drugs for 72 hours, RNA is purified, dot blotted, and hybridized with isotope labelled nucleic acid to determine the amounts of actin mRNA and replicon RNA, and finally the amount of RNA is compared.
Plasma samples from 300 persons positive to the hepatitis C antibody test were screened by antibody diagnosis kit produced by LG life Sciences Ltd. (LG HCD3.0 TMB) to select 40 plasma samples having high titer. Replicon cell line and Huh-7 cell line each were cultured in a 96-well cell culture plate, fixed by methanol/acetone (1:1) mixture, and blocked by 3% skimmed milk. The 40 plasma sanples selected above were 100-fold diluted and aided thereto, and the bound antibodies were probed by anti-Human goat antibody (Sigma) to which Horse Radish Peroxidase is attached. As a result, 12 plasma samples having low specificity to Huh-7 cell line, but high specificity to replicon cell line were obtained. These plasma samples were used in the following cell-based ELISA.
Rep5.1 cells were cultured in DMEM-10 containing 500 μg/ml of G418. The Rep5.1 cells in log phase were suspended by trypsin treatment, and 5000 cells were distributed to each well of a 96-well pate. After 4 hours for which the cells were attached to the plate, the serially diluted drug was added to each well. After 72 hours, the cells were fixed by methanol/acetone (50/50, v/v), and the decrease of HCV proteins was measured by using HCV antibody obtained as above. The extent of decrease was estimated in percentage based on the control containing no drug, and the concentration of drug at which 50% of proteins was decreased was determined to be IC50.
In general terms: ELISA stands for enzyme-linked immunosorbent assay.

[1] abbreviates: concentration at which 50% of HCV proteins was decreased, Table 2, read-out: IC50.
The mark [2] stands for this setting: decrease of HCV proteins measured by HCV antibody, Table 1, read-out: Level (IC50 values classified).

Consider `CC1=C(C(=O)OCCc2cccc([N+](=O)[O-])c2)C(CO)NC(=S)N1` (stereo not shown) [32″, 4-hydroxymethyl-6-methyl-2-thioxo-1,2,3,4-tetrahydro-pyrimidine-5-carboxylic acid 2-(3-nitro-phenyl)-ethyl ester], for which the IC50 under setting [1] worked out at 6000 nM and the concentration for half-maximal inhibition (IC50) under setting [2] lay in the range of 1000 to 10000 nM.
The like results for `O=C(OCCc1ccsc1)C1=CNC(=S)NC1` [Compound 261, 2-thioxo-1,2,3,4-tetrahydro-pyrimidine-5-carboxylic acid 2-thiophen-3-yl-ethyl ester] were, in that order, 800 nM and below 1000 nM.
The like results for `CC1=C(C(=O)OCc2nc3ccccc3n2C)CNC(=S)N1` [Compound 241, 6-methyl-2-thioxo-1,2,3,4-tetrahydro-pyrimidine-5-carboxylic acid 1-methyl-1H-benzoimidazol-2-ylmethyl ester] were, in that order, 97000 nM and above 20000 nM.
As to `CC1=C(C(=O)OCc2cc3c(cc2[N+](=O)[O-])OCO3)CNC(=S)N1` [Compound 140, 6-methyl-2-thioxo-1,2,3,4-tetrahydro-pyrimidine-5-carboxylic acid 6-nitro-benzo[1,3]dioxol-5-ylmethyl ester], the concentration for half-maximal inhibition (IC50) reads like this: under setting [1], 13000 nM; under setting [2], 10000 to 20000 nM.
For the compound `CC1=C(C(=O)OCCc2ccsc2)[C@@H](CF)NC(=S)N1` [25′, (S)-4-fluoromethyl-6-methyl-2-thioxo-1,2,3,4-tetrahydro-pyrimidine-5-carboxylic acid 2-thiophen-3-yl-ethyl ester], the IC50 reads like this: under setting [1], 4900 nM; under setting [2], 1000 to 10000 nM.
Regarding `CC1=C(C(=O)OCc2ccc(S(C)(=O)=O)cc2)CNC(=S)N1` [Compound 74, 6-methyl-2-thioxo-1,2,3,4-tetrahydro-pyrimidine-5-carboxylic acid 4-methanesulfonyl-benzyl ester], the IC50 reads like this: under setting [1], above 100000 nM; under setting [2], above 20000 nM.
On the same counts, the results for `CC1=C(C(=O)OCCCn2c(=O)sc3ccccc32)C(CF)NC(=S)N1` (stereo not shown) [48′, 4-fluoromethyl-6-methyl-2-thioxo-1,2,3,4-tetrahydro-pyrimidine-5-carboxylic acid 3-(2-oxo-benzothiazol-3-yl)-propyl ester] are 21000 nM and above 20000 nM.
For the compound `CC1=C(C(=O)OCCc2ccccc2Cl)C(CO)NC(=S)N1` (stereo not shown) [41″, 4-hydroxymethyl-6-methyl-2-thioxo-1,2,3,4-tetrahydro-pyrimidine-5-carboxylic acid 2-(2-chloro-phenyl)-ethyl ester], the IC50 reads like this: under setting [1], 7200 nM; under setting [2], 1000 to 10000 nM.
On the same counts, the results for `CSCCCOC(=O)C1=C(C)NC(=S)NC1CO` (stereo not shown) [29″, 4-hydroxymethyl-6-methyl-2-thioxo-1,2,3,4-tetrahydro-pyrimidine-5-carboxylic acid 3-methylsulfanyl-propyl ester] are above 100000 nM and above 20000 nM.
Regarding `CC1=C(C(=O)OCCc2ccc(Cl)c(Cl)c2)C(CO)NC(=S)N1` (stereo not shown) [42″, 4-hydroxymethyl-6-methyl-2-thioxo-1,2,3,4-tetrahydro-pyrimidine-5-carboxylic acid 2-(3,4-dichloro-phenyl)-ethyl ester], the IC50 under setting [1] is below 400 nM and the concentration for half-maximal inhibition (IC50) under setting [2] is below 1000 nM.
The like results for `CC1=C(C(=O)OC2Cc3ccccc3C2)CNC(=S)N1` [Compound 124, 6-methyl-2-thioxo-1,2,3,4-tetrahydro-pyrimidine-5-carboxylic acid indan-2-yl ester] were, in that order, 800 nM and below 1000 nM.
The like results for `CC1=C(C(=O)OCCSc2nc3ccccc3s2)CNC(=S)N1` [Compound 224, 6-methyl-2-thioxo-1,2,3,4-tetrahydro-pyrimidine-5-carboxylic acid 2-(benzothiazol-2-ylsulfanyl)-ethyl ester] were, in that order, 700 nM and below 1000 nM.
Take `CC1=C(C(=O)OCCCc2cccs2)C(CF)NC(=S)N1` (stereo not shown) [10′, 4-fluoromethyl-6-methyl-2-thioxo-1,2,3,4-tetrahydro-pyrimidine-5-carboxylic acid 3-thiophen-2-yl-propyl ester]: the IC50 under setting [1] came to 1200 nM and the IC50 under setting [2] fell in the range of 1000 to 10000 nM.
Turning to `CC1=C(C(=O)OC(C)CCc2cccs2)C(CF)NC(=S)N1` (stereo not shown) [74′, 4-fluoromethyl-6-methyl-2-thioxo-1,2,3,4-tetrahydro-pyrimidine-5-carboxylic acid 1-methyl-3-thiophen-2-yl-propyl ester], the IC50 runs as follows: under setting [1], 7000 nM; under setting [2], 1000 to 10000 nM.
The like results for `CC1=C(C(=O)OCCc2ccc(OCc3ccccc3)cc2)C(CO)NC(=S)N1` (stereo not shown) [27″, 4-hydroxymethyl-6-methyl-2-thioxo-1,2,3,4-tetrahydro-pyrimidine-5-carboxylic acid 2-(4-benzyloxy-phenyl)-ethyl ester] were, in that order, 400 nM and below 1000 nM.
On to `O=C(OCc1ccccc1)C1=C(c2cccc3ccccc23)NC(=S)NC1` [Compound 17, 6-naphthalen-1-yl-2-thioxo-1,2,3,4-tetrahydro-pyrimidine-5-carboxylic acid benzyl ester], for which the IC50 is 100000 nM under setting [1] and above 20000 nM under setting [2].
Take `COc1ccccc1CCOC(=O)C1=C(C)NC(=S)NC1` [Compound 115, 6-methyl-2-thioxo-1,2,3,4-tetrahydro-pyrimidine-5-carboxylic acid 2-(2-methoxy-phenyl)-ethyl ester]: the IC50 under setting [1] stood at 700 nM and the half-maximal inhibitory concentration (IC50) under setting [2] is below 1000 nM.
On the same counts, the results for `CC1=C(C(=O)OCc2ccc(-c3ccccc3)cc2)CNC(=S)N1` [Compound 22, 6-methyl-2-thioxo-1,2,3,4-tetrahydro-pyrimidine-5-carboxylic acid biphenyl-4-ylmethyl ester] are 400 nM and below 1000 nM.
On the same counts, the results for `CC1=C(C(=O)OCc2cnc(-c3cccs3)s2)CNC(=S)N1` [Compound 210, 6-methyl-2-thioxo-1,2,3,4-tetrahydro-pyrimidine-5-carboxylic acid 2-thiophen-2-yl-thiazol-5-ylmethyl ester] are 3000 nM and 1000 to 10000 nM.
The like results for `CCc1ccc(CCCOC(=O)C2=C(C)NC(=S)NC2CO)o1` (stereo not shown) [19″, 4-hydroxymethyl-6-methyl-2-thioxo-1,2,3,4-tetrahydro-pyrimidine-5-carboxylic acid 3-(5-ethyl-furan-2-yl)-propyl ester] were, in that order, 1400 nM and 1000 to 10000 nM.
As to `CC(=O)OCC1NC(=S)NC(C)=C1C(=O)OCCc1ccsc1` (stereo not shown) [21″, 4-acetoxymethyl-6-methyl-2-thioxo-1,2,3,4-tetrahydro-pyrimidine-5-carboxylic acid 2-thiophen-3-yl-ethyl ester], the IC50 under setting [1] was above 100000 nM and the IC50 under setting [2] is above 20000 nM.
On the same counts, the results for `CC1=C(C(=O)OCCc2ccc(C)s2)CNC(=S)N1` [Compound 258, 6-methyl-2-thioxo-1,2,3,4-tetrahydro-pyrimidine-5-carboxylic acid 2-(5-methyl-thiophen-2-yl)-ethyl ester] are below 400 nM and below 1000 nM.
The like results for `CC1=C(C(=O)OCc2cccc(C)c2)CNC(=S)N1` [Compound 90, 6-methyl-2-thioxo-1,2,3,4-tetrahydro-pyrimidine-5-carboxylic acid 3-methyl-benzyl ester] were, in that order, 400 nM and below 1000 nM.
The like results for `CC1=C(C(=O)OCCc2ccc(N3CCCCC3)c([N+](=O)[O-])c2)C(CO)NC(=S)N1` (stereo not shown) [100″, 4-Hydroxymethyl-6-methyl-2-thioxo-1,2,3,4-tetrahydro-pyrimidine-5-carboxylic acid 2-(3-nitro-4-piperidin-1-yl-phenyl)-ethyl ester] were, in that order, 900 nM and below 1000 nM.
Turning to `CC1=C(C(=O)OCCCc2ccccc2)CNC(=S)N1` [Compound 14, 6-methyl-2-thioxo-1,2,3,4-tetrahydro-pyrimidine-5-carboxylic acid 3-phenyl-propyl ester], the half-maximal inhibitory concentration (IC50) reads like this: under setting [1], 200 nM; under setting [2], below 1000 nM.
In the case of `CC1=C(C(=O)OCc2ccccc2[N+](=O)[O-])CNC(=S)N1` [Compound 183, 6-methyl-2-thioxo-1,2,3,4-tetrahydro-pyrimidine-5-carboxylic acid 2-nitro-benzyl ester], the IC50 was 2500 nM under setting [1] and 1000 to 10000 nM under setting [2].

These data come from patent US20060116390A1, “Hepatitis c virus inhibitors” (priority 2003, published 2006).
